According to the NIST ThermoML archive (doi:10.1016/j.tca.2017.12.013):
± gives the expanded uncertainty stated by the source.

Test: Molar enthalpy of transition or fusion
Conditions: DSC

[Ag+].[Ag+].[S-2] [silver sulfide]
Molar enthalpy of transition or fusion (Crystal 2): 0.287 ± 0.143 kcal/mol
Molar enthalpy of transition or fusion (Crystal 3): 1 ± 0.191 kcal/mol
